Source: paper PMC6881293, “Nanomolar-potency ‘co-potentiator’ therapy for cystic fibrosis caused by a defined subset of minimal function CFTR mutants” (Scientific Reports, 2019)

Biological target: T1, N1303K-CFTR (Homo sapiens, UniProt P13569, N1303K)
T1 construct: expressed in transfected cells
Test: Short-circuit current in gene-edited 16HBE14o- cells expressing N1303K-CFTR (16HBE-N1303Kge)
Format: cell-based
Settings: 16HBE-N1303Kge cells; 20 µM compound after 20 µM forskolin and 5 µM VX-770
Experimental: To test the efficacy of new co-potentiators in human airway cell models, short-circuit current was measured in 16HBE14o- human airway epithelial cells in which the endogenous CFTR gene was edited to contain the N1303K mutation (16HBE-N1303Kge[21]) and in primary cultures of human bronchial epithelial cells from a N1303K homozygous CF subject. Addition of forskolin and then VX-770 to 16HBE-N1303Kge cells gave a limited response (Fig. 6A). Subsequent addition of CP-A061 or CP-D123 produced CFTRinh-172-inhibitable responses of ~10 μA/cm^2, ~6-fold greater that that produced by VX-770 alone. Increased short-circuit current was also found for these co-potentiators in the primary human bronchial epithelial cell cultures (Fig. 6B).
Figure 6 N1303K-CFTR activity in human airway epithelial cell cultures. (A) Short-circuit current in gene-edited 16HBE14o- cells expressing N1303K-CFTR. Concentrations: 20 µM amiloride, 20 µM forskolin, 5 µM VX-770, 20 µM CP-A061 and CP-D123, and 10 µM CFTRinh-172. Representative original curves (left and center) and summary of changes in current (∆Isc) (right). Mean ± S.E.M., n = 3, *P < 0.05). (B) Short-circuit current in primary cultures of human bronchial epithelial cells from a homozygous N1303K-CFTR CF subject. […]
Short-circuit current was measured on cells cultured on Snapwell clear permeable supports (Corning) as described[10],[11]. […]

T1 sequence (P13569 whole entry N1303K): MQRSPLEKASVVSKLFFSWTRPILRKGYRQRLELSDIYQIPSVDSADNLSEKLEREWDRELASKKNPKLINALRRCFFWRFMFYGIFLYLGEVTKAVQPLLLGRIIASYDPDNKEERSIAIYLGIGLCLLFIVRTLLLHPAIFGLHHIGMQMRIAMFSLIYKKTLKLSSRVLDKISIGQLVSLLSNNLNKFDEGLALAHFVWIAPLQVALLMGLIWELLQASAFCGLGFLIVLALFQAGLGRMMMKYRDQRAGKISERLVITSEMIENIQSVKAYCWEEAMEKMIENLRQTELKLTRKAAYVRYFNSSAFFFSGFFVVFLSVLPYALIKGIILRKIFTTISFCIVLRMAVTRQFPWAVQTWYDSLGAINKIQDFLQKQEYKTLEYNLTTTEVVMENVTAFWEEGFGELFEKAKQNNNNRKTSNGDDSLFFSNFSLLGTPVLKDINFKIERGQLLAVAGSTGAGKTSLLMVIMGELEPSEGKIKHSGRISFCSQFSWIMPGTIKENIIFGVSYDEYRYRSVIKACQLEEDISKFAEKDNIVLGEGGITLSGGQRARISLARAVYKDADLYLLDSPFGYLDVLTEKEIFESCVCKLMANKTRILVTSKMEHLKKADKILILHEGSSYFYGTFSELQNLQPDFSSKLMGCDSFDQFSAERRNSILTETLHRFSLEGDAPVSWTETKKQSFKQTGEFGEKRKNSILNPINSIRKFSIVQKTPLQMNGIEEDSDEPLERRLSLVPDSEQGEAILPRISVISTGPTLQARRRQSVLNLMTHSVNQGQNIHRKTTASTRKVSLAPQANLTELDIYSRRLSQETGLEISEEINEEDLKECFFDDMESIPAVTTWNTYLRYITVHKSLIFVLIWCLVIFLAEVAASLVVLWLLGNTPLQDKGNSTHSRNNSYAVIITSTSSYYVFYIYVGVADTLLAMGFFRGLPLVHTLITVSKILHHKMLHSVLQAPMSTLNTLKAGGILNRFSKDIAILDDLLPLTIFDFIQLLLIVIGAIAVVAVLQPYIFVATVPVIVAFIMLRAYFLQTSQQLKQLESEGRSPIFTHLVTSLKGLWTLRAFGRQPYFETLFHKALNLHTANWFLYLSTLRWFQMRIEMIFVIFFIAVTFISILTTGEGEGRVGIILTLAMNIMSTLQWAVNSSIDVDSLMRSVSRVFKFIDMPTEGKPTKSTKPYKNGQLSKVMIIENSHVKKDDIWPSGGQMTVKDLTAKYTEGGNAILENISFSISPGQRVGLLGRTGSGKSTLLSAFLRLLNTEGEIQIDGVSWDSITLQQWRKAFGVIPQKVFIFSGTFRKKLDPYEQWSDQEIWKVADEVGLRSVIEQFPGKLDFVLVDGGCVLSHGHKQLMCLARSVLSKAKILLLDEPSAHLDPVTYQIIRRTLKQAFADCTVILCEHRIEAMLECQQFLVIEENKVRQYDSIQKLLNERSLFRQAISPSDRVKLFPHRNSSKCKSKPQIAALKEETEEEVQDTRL

COc1ccc2[nH]c3c(c2c1)CCNC31CCN(Cc2ccc(F)cc2F)CC1 [Compound A061]
CFTRinh-172-inhibitable short-circuit current response: ~ 10 μA/cm^2
response relative to that produced by VX-770 alone: ~ 6 fold
